Laboratory results taken from patent publication US20190167811A1, “LIPID COMPOSITIONS AND THEIR USES FOR INTRATUMORAL POLYNUCLEOTIDE DELIVERY” (ModernaTX, Inc., priority 2016, published 2019).

Experiment: Plasma and liver pharmacokinetics of LNP formulated mRNAs
Assay type: in vivo
Description: The plasma and liver pharmacokinetics of a lipid formulation (LNP) containing Compound 18 and an mRNA encoding a protein of interest was studied. The concentrations of Compound 18 in plasma after a single IV infusion are shown FIG. 28. The concentration of Compound 18 decreased quickly within about 12 hours.
The concentrations of Compound 18 in liver tissues after weekly dosing were measured at day 1, day 8, and day 15.

time within which the concentration of Compound 18 in plasma decreased quickly (single IV infusion of LNP containing Compound 18 and mRNA): ≤ 12 h
concentration of Compound 18 in liver tissues (weekly dosing, measured at day 1, day 8, day 15, at four hours after each weekly dosing): decreased significantly
Structure (SMILES): CCCCCCCCCOC(=O)CCCCCCCN(CCO)CCCCCCCC(=O)OC(CCCCCCCC)CCCCCCCC [Compound 18, Heptadecan-9-yl 8-((2-hydroxyethyl)(8-(nonyloxy)-8-oxooctyl)amino) octanoate]
